Assay results as given in US8632749B2, “Two photon tracer, method for the preparation thereof and the use thereof in screening anticancer agents” (SNU R&DB Foundation, priority 2009, dated 2014).
Where two headings read alike, the source gives them in different places.

What was measured:
[1] = One-photon absorption/emission spectra and fluorescence quantum yield; format: physicochemical; settings: for Φ, fluorescence quantum yield: ±15%; for pH sensitivity of fluorescence: biologically relevant pH range
Experimental: Absorption spectra were recorded on a Hewlett-Packard 8453 diode array spectrophotometer, and fluorescence spectra were obtained with Amico-Bowman series 2 luminescence spectrometer with a 1-cm standard quartz cell. The fluorescence quantum yield was determined by using Coumarin 307 and Rhodamine B as the reference.

[2] = Measurement of two-photon cross section (TPEF method); format: physicochemical; settings: for Φδmax, two-photon action cross-section / λmax of the two-photon absorption spectrum / δmax, peak two-photon cross-section: PBS buffer; for δmax, peak two-photon cross-section: ±15%
Experimental: The two-photon cross section (δ) was determined using the femto second (fs) fluorescence measurement technique as described previously. AG1, AG2, Cy3-Glc-α, and 2-NBDG were dissolved in 30 mM PBC buffer (137 mM NaCl, 3 mM KCl, 10 mM Na2HPO4, 2 mM KH2PO4, pH 7.4) at a concentration of 5.0×10^−6 M and then the two-photon induced fluorescence intensity was measured at 740-940 nm by using fluorescein (8.0×10^−5 M, pH=11) as the reference, whose two-photon property has already been well characterized. The intensities of the two photon induced fluorescence spectra of the reference and sample emitted at the same excitation wavelength were determined.
The TPA cross section was calculated according to Eq. 1,
The results are shown in FIG. 1 and the above-described Table 1.

A549 cells [3] = test: Tracer uptake by A549 cells, TPM imaging (optimum concentration); format: cell-based; settings: for Cell death in A549 cells: 100 μM probe, 30 min; for Uptake rate (time) in A549 cells: A549 cells labeled with tracer
Experimental: (§1) A549 human lung carcinoma cells, HeLa human cervical carcinoma cells, NIH/3T3 murine fibroblast cells, and HEK293 human embryonic kidney cells were obtained from American Type Culture Collection (ATCC, Manassas, Va., USA). A549 cells were cultured in RPMI 1640 (WelGene) supplemented with heat-inactivated 10% FBS (WelGene), penicillin (100 units/mL), and streptomycin (100 μg/mL).
For labeling, the growth medium was removed and replaced with serum-free RPMI 1640 (without D-glucose) (United Search Partners, Austin, Tex., USA).
The cells were treated and incubated with the required concentration of a tracker at 37° C. for 10 min.
Thereafter, the cells were washed three times with phosphate buffered saline (PBS; Gibco) and then imaged.
(§2) For comparison of the relative uptake of AG1 and AG2 per unit cell, the TPEF intensities from regions of interest were chosen without bias from among 40-60 cells as determined by the photomultiplier tube (PMT) and the data were digitalized using Histogram (a program for data analysis).
In determine the optimum concentration for the uptake experiment, TPM images of A549 cells labeled for 30 min with 6, 12.5, 25, 50, and 100 μM of AG1 and AG2 were compared. The image appeared brighter as the probe concentration was increased up to 50 μM; however, at higher concentrations than this, cell death was observed.
Moreover, the uptake rate was faster (600 vs 800 s) and the TPM image was brighter when the cells were labeled with AG2 than when they were treated with AG1 (FIG. 3). Therefore, 50 μM of AG2 was used for the uptake experiments.

A549 cells [4] = test: Viability of A549 cells with CCK-8 kit; format: cell-based, human; settings: 50 μM, 10 min
Experimental: FIG. 7: Viability of A549 cells in the presence of AG2 as measured by using CCK-8 kit. The cells were incubated with 50 μM AG2 for 10 min.
In order to confirm that the tracer couldn't affect the viability of A549 cells in the incubation condition, a CCK-8 kit (Cell Counting Kit-8, Dojindo, Japan) was used according to the manufacturer's protocol.

[5] = system: A549, HeLa, HEK293 and NIH/3T3 cells; test: Relative AG2 uptake by cancer and normal cell lines (TPM); format: cell-based; settings: A549, HeLa vs HEK293, NIH/3T3
Source text: In order to assess whether AG2 is selectively taken up by cancer cells, the efficiencies of AG2 uptake by A549 (lung carcinoma cell line), HeLa (cervical cancer cell line), HEK293 (human embryonic kidney 293 cell line), and NIH/3T3 (murine fibroblast cell line) cells were compared. […] Therefore, AG2 can be used for visualizing glucose uptake in living cells by TPM, without subjecting the cells to glucose starvation.
as §1
NIH/3T3 cells, HeLa cells, and HEK293 cells were cultured in DMEM (WelGene) supplemented with heat-inactivated 10% FBS (WelGene), penicillin (100 units/mL), and streptomycin (100 μg/mL). All the cell lines were maintained in a humidified atmosphere of 5% CO2 and 95% air at 37° C. […]
as §2

A549 cells [6] = test: Competition experiment for uptake pathway; format: cell-based, human; settings: for Reduction of AG2 fluorescence intensity in A549 cells: AG2 50 μM, 10 min
Experimental: To determine whether the intracellular uptake pathway of AG2 is relevant to that of D-glucose, a competition experiment was conducted.
To this end, A549 cells were incubated with AG2 (50 μM) for 10 min in the presence of 0, 10, and 50 mM D-glucose, and 50 mM L-glucose, and relative AG2 uptake was determined by TPM.

[7] = system: Human colon cancer tissue and normal tissue; test: TPM imaging of AG2 uptake in human colon normal and cancer tissue slices
Experimental: In the present invention, an additional assessment was made of the utility of AG2 in tissue imaging for the diagnosis of colon cancer. In this regard, the images of normal- and cancer-tissue slices from colon-cancer patients were employed. […] The tissues were incubated in artificial cerebrospinal fluid (ACSF) for 4 h at 37° C. in the absence and presence of taxol (50 μM), after which AG2 uptake was monitored with TPM by following the change in TPEF at a depth of 100 μm.
Human colon cancer tissue and normal tissue were obtained from colon cancer patients by conducting colonoscopic examinations and taking samples.
Normal tissues, cancerous tissue, and cancerous tissue containing 50 μM taxol were incubated in artificial cerebrospinal fluid (ACSF) bubbled with 95% O2 and 5% CO2 for 4 hrs at 37° C. The tissues were then washed three times with ACSF, transferred to glass-bottomed dishes (MatTek), added with 50 μM AG2, and observed by TPM.
To determine whether the relative uptake was affected by incubation in ACSF, the same experiment was conducted with normal tissue and colon cancerous tissue obtained immediately after the colonoscopic biopsy.

[8] = from The Handbook (Molecular Probes); cited from earlier work
A549 cells [9] = settings: 0.049 µM
A549 cells [10] = test: Effect of anticancer agents on AG2 uptake by A549 cells

Row | Compound | λ(1)max, one-photon absorption maximum ([1]; PBS buffer) [nm] | λflmax, one-photon emission maximum ([1]; PBS buffer) [nm] | Φ, fluorescence quantum yield ([1]; PBS buffer) | λ(1)max, one-photon absorption maximum ([1]; DMF (ETN 0.386)) [nm] | λflmax, one-photon emission maximum ([1]; DMF (ETN 0.386)) [nm] | Φ, fluorescence quantum yield ([1]; DMF (ETN 0.386)) | λ(1)max, one-photon absorption maximum ([1]; Dioxane (ETN 0.164)) [nm] | λflmax, one-photon emission maximum ([1]; Dioxane (ETN 0.164)) [nm] | Φ, fluorescence quantum yield ([1]; Dioxane (ETN 0.164)) | λ(1)max, one-photon absorption maximum ([1]; EtOH (ETN 0.654)) [nm] | λflmax, one-photon emission maximum ([1]; EtOH (ETN 0.654)) [nm] | Φ, fluorescence quantum yield ([1]; EtOH (ETN 0.654)) | λ(1)max, one-photon absorption maximum ([1]; H2O (ETN 1.00)) [nm] | λflmax, one-photon emission maximum ([1]; H2O (ETN 1.00)) [nm] | Φ, fluorescence quantum yield ([1]; H2O (ETN 1.00)) | pH sensitivity of fluorescence [1] | Φδmax, two-photon action cross-section [2] [GM] | λmax of the two-photon absorption spectrum [2] [nm] | δmax, peak two-photon cross-section [2] [GM] | Cell death in A549 cells (A549 cells [3]) | other results
1 | cyanine-3-linked O-1-glycosylated glucose [Cy3-Glc-α, reference compound] | 545 | 555 | 0.01 |  |  |  |  |  |  |  |  |  |  |  |  |  |  |  |  |  | 
2 | CC(=O)c1ccc2cc(N(C)CC(=O)N3CCN(CCOC4OC(CO)C(O)C(O)C4O)CC3)ccc2c1 (centres unmarked) [AG2] | 375 | 501 | 0.56 | 369 | 449 | 1.00 | 362 | 425 | 0.72 | 370 | 480 | 0.97 | 375 | 501 | 0.56 | pH insensitive | 88 | 780 | 155 | some cell death was observed | Uptake rate (time) in A549 cells (A549 cells [3]): 600 s; Effect on viability of cells (CCK8 kit) (A549 cells [4]): negligible toxicity; Efficiency of AG2 uptake by cell lines [5]: most efficient in A549 and HeLa cells, followed by HEK293 and NIH/3T3 cells; Reduction of AG2 fluorescence intensity in A549 cells (A549 cells [6]; medium with 10 mM D-glucose vs glucose-depleted medium): about 16%; Reduction of AG2 fluorescence intensity in A549 cells (A549 cells [6]; medium with 50 mM D-glucose vs glucose-depleted medium): ~74%; AG2 fluorescence intensity in A549 cells (A549 cells [6]; medium with 50 mM L-glucose): not affected; AG2 uptake by A549 cells (A549 cells [6]; presence of 55 mM D-/L-alanine): not influenced; AG2 uptake in cancer tissue versus normal tissue ([7]; colon tissue slices, 50 μM AG2, depth 100 μm): much faster than in the normal tissue
3 | O=[N+]([O-])c1ccc(NC2C(O)OC(CO)C(O)C2O)c2nonc12 [2-NBDG, 2-[N-(7-nitrobenz-2-oxa-1,3-diazol-4-yl)-amino]-2-deoxy-D-glucose] |  |  |  |  |  |  |  |  |  |  |  |  |  |  |  |  |  |  |  |  | λ(1)max, one-photon absorption maximum [8]: 465 nm; λflmax, one-photon emission maximum [8]: 540 nm
4 | CC(=O)O[C@H]1C(=O)[C@@]2(C)[C@H]([C@H](OC(=O)c3ccccc3)[C@]3(O)C[C@H](OC(=O)[C@H](O)[C@@H](NC(=O)c4ccccc4)c4ccccc4)C(C)=C1C3(C)C)[C@]1(OC(C)=O)CO[C@@H]1C[C@@H]2O [Taxol, taxol] |  |  |  |  |  |  |  |  |  |  |  |  |  |  |  |  |  |  |  |  | AG2 uptake of cancer tissue pretreated with agent ([7]; colon cancer tissue, agent 50 μM for 4 hrs in ACSF, depth 100 μm): much slower AG2 uptake than the untreated one; AG2 uptake by A549 (A549 cells [9]; 6 h): 89.6%; AG2 uptake by A549 (A549 cells [9]; 12 h): 69.5%; Cellular uptake of AG2 versus incubation time with agent (A549 cells [10]; A549 cells incubated 1, 3, 6, 12, 24 h with agent): lower with longer incubation times; AG2 uptake by A549 (A549 cells [10]; agent 49 nM (second line, r8), after 6 h): 96.7%; AG2 uptake by A549 (A549 cells [10]; agent 49 nM (second line, r8), after 12 h): 81.8%; AG2 uptake by A549 (A549 cells [10]; agent 9.8 μM, after 6 h): 69.5%; AG2 uptake by A549 (A549 cells [10]; agent 9.8 μM, after 12 h): 50.7%
5 | COc1ccc(C[C@@H](O)c2cc(OC)c(OC)c(OC)c2)cc1O [Combrestastatin, combretastatin] |  |  |  |  |  |  |  |  |  |  |  |  |  |  |  |  |  |  |  |  | AG2 uptake by A549 (A549 cells [10]; agent 2 μM, after 6 h): 70.2%; AG2 uptake by A549 (A549 cells [10]; agent 2 μM, after 12 h): 53.2%
6 | CC(=O)c1ccc2cc(N(C)CC(=O)NCCOCCOCCNCCOC3OC(CO)C(O)C(O)C3O)ccc2c1 (centres unmarked) [AG1] | 373 | 501 | 0.90 | 366 | 451 | 1.00 | 360 | 434 | 0.59 | 364 | 479 | 1.00 | 373 | 501 | 0.90 | pH insensitive | 86 | 780 | 95 | some cell death was observed | Φδ value from TP action spectrum ([2]; at 780 nm): approximately 90 GM; Uptake rate (time) in A549 cells (A549 cells [3]): 800 s
